Like-named read-outs stand apart in the source and are kept apart here.
Experiments:
[1] = molecular target: T1, cat-CHD1L ATPase (Homo sapiens, UniProt Q86WJ1); assay: CHD1L ATPase assay with recombinant catalytic domain (cat-CHD1L); assay type: biochemical; settings: for inhibition at 20 µM: confirmed HTS hits, HTS at 20 μM, read-out: inhibition against cat-CHD1L ATPase
T1 construct: inferred from Ni-NTA / imidazole purification; made in house; host or cells: E. coli Rosetta 2 (DE3) pLysS; constructs were a gift from Helena Berglund, Karolinska Institute
T1 sequence (Q86WJ1 16-611 limits assumed): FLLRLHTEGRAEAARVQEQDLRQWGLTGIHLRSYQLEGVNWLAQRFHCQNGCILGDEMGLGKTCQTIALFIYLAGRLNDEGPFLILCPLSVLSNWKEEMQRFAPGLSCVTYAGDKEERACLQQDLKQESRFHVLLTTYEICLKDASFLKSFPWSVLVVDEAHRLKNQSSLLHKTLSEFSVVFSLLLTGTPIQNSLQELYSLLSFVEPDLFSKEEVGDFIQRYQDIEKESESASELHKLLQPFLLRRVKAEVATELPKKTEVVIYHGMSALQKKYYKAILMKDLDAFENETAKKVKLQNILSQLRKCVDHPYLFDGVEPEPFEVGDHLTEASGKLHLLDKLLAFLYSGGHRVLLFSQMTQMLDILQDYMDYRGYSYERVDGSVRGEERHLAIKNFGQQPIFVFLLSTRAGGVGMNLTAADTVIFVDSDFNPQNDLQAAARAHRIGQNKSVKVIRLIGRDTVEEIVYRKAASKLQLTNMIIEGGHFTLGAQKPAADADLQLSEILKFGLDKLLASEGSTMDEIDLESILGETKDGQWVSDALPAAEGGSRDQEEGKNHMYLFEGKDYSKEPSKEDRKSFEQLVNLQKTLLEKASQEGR
Experimental: All reactions were carried out using low volume non-binding surface 384-well plates (Corning Inc., Corning N.Y.). cat-CHD1L or fl-CHD1L (100 nM) and 200 nM c-Myc DNA or mononucelosome (Active Motif, Carlsbad, Calif.) were added to a buffer containing 50 mM Tris pH 7.5, 50 mM NaCl, 1 mM DTT, 5% glycerol, and the reaction was initiated by the addition of 10 μM ATP (New England Biolabs, Ipswich, Mass.) to a total volume of 10 μL and incubated at 37° C. for 1 h. ATPase activity was assayed by adding 500 nM of Phosphate Sensor (Life Technologies, Carlsbad, Calif.), containing labeled phosphate-binding protein, specifically labeled with the fluorophore MDCC, and measuring excitation (430 nm) and emission (450 nm) immediately on an EnVision® plate reader (PerkinElmer, Hopkinton, Mass.). An inorganic phosphate standard curve was used to convert the fluorescence to [Pi], and enzyme kinetics were determined using Prism8 (GraphPad Software, San Diego, Calif.).
Assay composition was the same as described above using cat-CHD1L, except that the reaction mixture volume was modified to accommodate addition of drug or DMSO. Using a Janus® liquid handler (PerkinElmer, Hopkinton, Mass.), a selected amount of compounds dissolved in 100% DMSO were mixed with 50 mM Tris pH 7.5, 50 mM NaCl, 1 mM DTT, 5% glycerol buffer to 200 μM in 10% DMSO. […] The negative control used was 1% DMSO and 10 mM EDTA was used as a positive control. Reactions were initiated with the addition of 10 μM ATP and incubated at 37° C. for 1 h. ATPase activity was measured by fluorescence by adding 500 nM Phosphate Sensor. cat-CHD1L was screened against a 20,000-compound diversity set from Life Chemicals (Woodbridge, Conn.) and a Kinase Inhibitor library from Selleck Chemicals (Houston, Tex.).
CHD1L Enzyme ATPase Assay. […] All reactions were carried out using low volume nonbinding surface 384-well plates (Corning Inc., Corning, N.Y.). […] The reaction was initiated by the addition of 10 μmol/L ATP (New England Biolabs, Ipswich, Mass.) to a total volume of 10 μL and incubated at 37° C. for 1 hour. ATPase activity was measured by adding 500 nmol/L of Phosphate Sensor (ThermoFisher, Waltham, Mass.) measuring excitation (430 nm) and emission (450 nm) immediately on an Envision plate reader (PerkinElmer, Waltham, Mass.). Background signal was determined by using all assay components excluding the enzyme.

[2] = system: HCT116 tumor organoids; assay: Tumor organoid cytotoxicity (CellTiter-Glo 3D); assay type: cell-based, human; settings: Homo sapiens
Experimental: Cell based cytotoxicity dose response and combination studies. […] Plates were then incubated for 3 days before treatment.
Cell Line Tumor Organoid Culture.
Tumor Organoid Cytotoxicity.

[3] = system: SW620 tumor organoids; assay: Tumor organoid cytotoxicity (CellTiter-Glo 3D)
[4] = units given with the values (nM, μM), read-out: activity in dose response studies against cat-CHD1L ATPase (IC50, FIG. 1A)
[5] = HCT-116, 72 h, Table 6, read-out: 3 D Cytotoxicity 72 hr IC50 (μM) HCT116
[6] = HCT-116, single agent, Table 4A, read-out: Tumor Organoid Cytotoxicity IC50 (μM) HCT116
[7] = Homo sapiens, SW-620, 72 h, read-out: 3 D Cytotoxicity 72 hr IC50 (μM) SW620
[8] = Homo sapiens, SW-620, read-out: Tumor Organoid Cytotoxicity IC50 (μM) SW620
[9] = Table 6, read-out: cat-CHD1L inhibition IC50

Row | SMILES | IC50 [2, 5] [µM] | IC50 [3, 7] [µM] | IC50 [3, 8] [µM] | IC50 [1, 9] [nM] | also measured
1 | O=S(=O)(NCCN1CCOCC1)c1ccc(C2CCCCC2)cc1 [Compound 1] |  |  |  |  | inhibition at 20 µM [1]: > 50%; IC50 [1, 4]: 900 to 5000 nM
2 | Cc1ccc(-c2ccc(S(=O)(=O)NCCN3CCOCC3)cc2)cc1C [Compound 2] |  |  |  |  | inhibition at 20 µM [1]: > 50%; IC50 [1, 4]: 900 to 5000 nM
3 | COc1cc(C)c(C(C)C)cc1S(=O)(=O)NCCN1CCOCC1 [Compound 3] |  |  |  |  | inhibition at 20 µM [1]: > 50%; IC50 [1, 4]: 900 to 5000 nM
4 | Cc1cc(Nc2ccc(NC(=O)CCc3c[nH]c4ccccc34)cc2)nc(N2CCCC2)n1 [Compound 6.6, 3-(1H-indol-3-yl)-N-(4-((6-methyl-2-(pyrrolidin-1-yl)pyrimidin-4-yl)amino)phenyl) propanamide] | > 40 | > 40 | > 40 |  | IC50 [2, 6]: > 30 µM
5 | Cc1cc(Nc2ccc(NC(=O)CCCc3c[nH]c4ccccc34)cc2)nc(N2CCCC2)n1 [Compound 6.7, 4-(1H-indol-3-yl)-N-(4-((6-methyl-2-(pyrrolidin-1-yl)pyrimidin-4-yl)amino)phenyl)butanamide] | 17.6 | 13 | 12.7 |  | IC50 [2, 6]: 17.6 µM
6 | Cc1cc(Nc2ccc(NC(=O)/C=C/c3c[nH]c4ccccc34)cc2)nc(N2CCCC2)n1 [Compound 6.8, (E)-3-(1H-indol-3-yl)-N-(4-((6-methyl-2-(pyrrolidin-1-yl)pyrimidin-4-yl)amino)phenyl)-acrylamide] | 6.8 | 4.3 | 3.6 |  | IC50 [2, 6]: 6.85 µM
7 | Cc1cc(Nc2ccc(NC(=O)c3cn(C)c4ccccc34)cc2)nc(N2CCCC2)n1 [Compound 6.19, 1-methyl-N-(4-((6-methyl-2-(pyrrolidin-1-yl)pyrimidin-4-yl)amino)phenyl)-1H-indole-3-carboxamide] | > 40 | 7.7 | 7.7 |  | IC50 [2, 6]: > 30 µM
8 | Cc1cc(Nc2ccc(NC(=O)Cc3c[nH]c4ncccc34)cc2)nc(N2CCCC2)n1 [Compound 6.20, N-(4-((6-methyl-2-(pyrrolidin-1-yl)pyrimidin-4-yl)amino)phenyl)-2-(1H-pyrrolo[2,3-b]pyridin-3-yl)acetamide] |  | 2.2 | 2.1 |  | 
9 | COc1ccc2[nH]cc(CC(=O)Nc3ccc(Nc4cc(C)nc(N5CCCC5)n4)cc3)c2c1 [Compound 6.22, 2-(5-methoxy-1H-indol-3-yl)-N-(4-((6-methyl-2-(pyrrolidin-1-yl)pyrimidin-4-yl)amino)phenyl) acetamide] |  |  |  |  | IC50 ([3]; read-out: 3 D Cytotoxicity 72 hr IC50 (μM) SW620, Table 6): 11.3 µM; IC50 ([3]; read-out: Tumor Organoid Cytotoxicity IC50 (μM) SW620, single agent, Table 4A, updated experimental, rounded to one decimal): 12.6 µM
10 | Cc1cc(Nc2ccc(NC(=O)Cc3c[nH]c4ccc(Br)cc34)cc2)nc(N2CCCC2)n1 [Compound 6.23, 2-(5-bromo-1H-indol-3-yl)-N-(4-((6-methyl-2-(pyrrolidin-1-yl)pyrimidin-4-yl)amino)phenyl) acetamide] |  |  | 5.7 |  | 
11 | Cc1cc(Nc2ccc(NC(=O)Cn3ccc4ccccc43)cc2)nc(N2CCCC2)n1 [Compound 6.24, 2-(1H-indol-1-yl)-N-(4-((6-methyl-2-(pyrrolidin-1-yl)pyrimidin-4-yl)amino)phenyl)acetamide] |  | 3 | 2.7 |  | 
12 | Cc1cc(Nc2ccc(NC(=O)Cc3c[nH]c4ccc(O)cc34)cc2)nc(N2CCCC2)n1 [Compound 6.25, 2-(5-hydroxy-1H-indol-3-yl)-N-(4-((6-methyl-2-(pyrrolidin-1-yl)pyrimidin-4-yl)amino)phenyl) acetamide] |  | 17.6 | 19.7 |  | 
13 | Cc1cc(Nc2ccc(NC(=O)Cn3cc(CC4CC4)c4ccccc43)cc2)nc(N2CCCC2)n1 [Compound 6.26, 2-(3-(cyclopropylmethyl)-1H-indol-1-yl)-N-(4-((6-methyl-2-(pyrrolidin-1-yl)pyrimidin-4-yl)amino)phenyl)acetamide] |  | 4.7 | 5.5 |  | 
14 | CCc1ccc2[nH]cc(CC(=O)Nc3ccc(Nc4cc(C)nc(N5CCCC5)n4)cc3)c2c1 [Compound 6.27, 2-(5-ethyl-1H-indol-3-yl)-N-(4-((6-methyl-2-(pyrrolidin-1-yl)pyrimidin-4-yl)amino)phenyl) acetamide] |  | 3 | 2.1 |  | 
15 | Cc1cc(Nc2ccc(NC(=O)Cc3cn(S(=O)(=O)c4ccc(C(F)(F)F)cc4)c4ccccc34)cc2)nc(N2CCCC2)n1 [Compound 6.29, N-(4-((6-methyl-2-(pyrrolidin-1-yl)pyrimidin-4-yl)amino)phenyl)-2-(1-((4-(trifluoromethyl)phenyl)sulfonyl)-1H-indol-3-yl)acetamide] |  | 5.4 | 5.1 |  | 
16 | Cc1cc(Nc2ccc(NC(=O)CC3C(=O)Nc4ccccc43)cc2)nc(N2CCCC2)n1 (stereo not drawn) [Compound 6.30, N-(4-((6-methyl-2-(pyrrolidin-1-yl)pyrimidin-4-yl)amino)phenyl)-2-(2-oxoindolin-3-yl) acetamide] |  | 6.1 | 6 |  | 
17 | COC(=O)C1CCCN1c1nc(C)cc(Nc2ccc(NC(=O)Cc3cccs3)cc2)n1 (stereo not drawn) [Compound 6.34] |  | > 20 |  | 3000 | 
18 | COC(=O)C1CCCN1c1nc(C)cc(Nc2ccc(NC(=O)Cc3cc(Br)cs3)cc2)n1 (stereo not drawn) [Compound 6.35] |  | 8.6 |  | 1800 | CHD1L enzyme inhibition, in words ([1]; recombinant cat-CHD1L): good enzyme inhibition; IC50 ([3]; Homo sapiens, SW-620, read-out: IC50 of cytotoxicity in SW620 cells): < 10 µM
19 | Cc1cc(Nc2ccc(NC(=O)Cc3cc(Br)cs3)cc2)nc(N2CCCC2C(=O)O)n1 (stereo not drawn) [Compound 6.36] |  | > 20 |  | > 20000 | 
20 | Cc1cc(Nc2ccc(NC(=O)Cc3cc(Br)cs3)cc2)nc(N2CCNCC2)n1 [Compound 6.40] | 4.8 | 10.5 |  | 11400 | 
21 | Cc1cc(Nc2ccc(NC(=O)Cc3ccccn3)cc2)nc(N2CCCC2)n1 [Compound 6.42] | 20.9 |  |  | 17700 | 
22 | Cc1cc(Nc2ccc(NC(=O)Cc3cccnc3)cc2)nc(N2CCCC2)n1 [Compound 6.43] | 19.1 |  |  | 10300 | 
23 | Cc1cc(NCc2ccc(NC(=O)Cc3cc(Br)cs3)cc2)nc(N2CCN(C)CC2)n1 [Compound 6.44] | 14 | 22.7 |  | 1200 | 
24 | Cc1cc(N2CCN(C)CC2)nc(NCc2ccc(NC(=O)Cc3cc(Br)cs3)cc2)n1 [Compound 6.45] | 10.6 | 27.2 |  | 1400 | 
25 | Cc1cc(NCc2ccc(NC(=O)Cc3cc(Br)cs3)cc2)nc(N2CCCCC2)n1 [Compound 6.46] | 8.3 | 12.5 |  | 700 | 
26 | Cc1cc(N2CCCCC2)nc(NCc2ccc(NC(=O)Cc3cc(Br)cs3)cc2)n1 [Compound 6.47] | 9.3 | 13.8 |  | 800 | 
27 | Cc1cc(Nc2ccc(NC(=O)Cc3cc(Br)cs3)cc2)nc(N2CCN(C)CC2)n1 [Compound 6.48] | 7.6 | 21.8 |  | 4500 | 

From patent US20230103444A1 (The Regents of the University of Colorado, a Body Corporate, priority 2020, published 2023)
